From ChEMBL document CHEMBL3399939, “Synthetic studies of five-membered heteroaromatic derivatives as potassium-competitive acid blockers (P-CABs)” (Bioorg Med Chem Lett, 2015) come the findings set out here.

One data set is filed under the species Sus scrofa. Kind of data set: Inhibition of K+-stimulated H(+)/K(+) ATPase in porcine gastric mucosal microsomal fraction assessed as reduction in inorganic phosphate release at 10 uM incubated at 37 degC for 30 mins in presence of ATP by malachine green dye based colorimetry. The format is microsomes. Conditions: Gastric mucosa.
Data set [1] is described as follows: Inhibition of K+-stimulated H(+)/K(+) ATPase in porcine gastric mucosal microsomal fraction assessed as reduction in inorganic phosphate release incubated at 37 degC for 30 mins in presence of ATP by malachine green dye based colorimetry. The format is microsomes, Sus scrofa, Gastric mucosa.
A short description of data set [2]: Lipophilicity, log D of the compound. The format is physicochemical. Conditions: octanol/water.

Each structure is given as a SMILES string.

A word on the inhibition: it is the share of the control response that was lost under treatment. By IC50 is commonly meant the concentration that gives 50% inhibition. By logD is commonly meant the decadic logarithm of the distribution of all forms, ionised or not, between an organic phase and buffer at a given pH. High values mean a more lipophilic compound, low ones a more hydrophilic compound.

`CNc1nc(-c2ccccc2)c(S(=O)(=O)c2ccccc2)s1`: the inhibition in the data set listed under Sus scrofa is 3.6%. The same measure, in the same setting: the same measure for `CNCc1nc(S(=O)(=O)c2ccccc2)c(-c2ccccc2)s1`: 2%. In the case of `CNCc1cc(S(=O)(=O)c2ccccc2)c(-c2ccccc2)s1`, the IC50 in data set [1] amounted to 150 nM. Further, in data set [2], the logD is 1.9. The corresponding values for `CNCc1cc(S(=O)(=O)c2ccccc2)n(-c2ccccc2)n1` are 68 nM and 1.1. For the compound `CNCc1cc(-c2ccccc2)c(S(=O)(=O)c2ccc(C)cc2)o1`, the inhibition in the data set filed under Sus scrofa worked out at 33.2%. On to `CNCc1cc(S(=O)(=O)c2ccccc2)c(-c2ccccc2)o1`, for which the IC50 in data set [1] stood at 1000 nM. Also, in data set [2], the logD stood at 1.8. As to `CNCc1cc(-c2ccccc2)c(S(=O)(=O)c2ccccc2)s1`, the IC50 in data set [1] amounted to 52 nM. The same compound showed a logD in data set [2] of 2.1. As to `CNCc1cc(S(=O)(=O)c2ccccc2)c(-c2ccccc2)[nH]1`, in the data set filed under Sus scrofa, the inhibition was 19.8%. In the case of `CNCc1nc(-c2ccccc2)c(S(=O)(=O)c2ccccc2)s1`, in data set [1], the IC50 was 170 nM. In data set [2], the logD amounted to 2.1. The corresponding values for `CNCc1cn(S(=O)(=O)c2ccc(C)cc2)c(-c2ccccc2)n1` are 99 nM and 0. With `CCNc1nc(-c2ccccc2)c(S(=O)(=O)c2ccccc2)s1`, the inhibition in the data set filed under Sus scrofa was 6.9%. Regarding `CNCc1cc(S(=O)(=O)c2ccccc2)n(-c2ccccc2)c1`, the IC50 in data set [1] stood at 130 nM. The compound also had a logD in data set [2] of 0.4.
